Assay results as given in patent publication US9357775B2, “Rosin-derived cationic compounds and polymers” (University of South Carolina, priority 2011, dated 2016).

What was measured:
Type in all cases: cell-based
[1] = system: different bacterial strains; assay: Control experiments with residual copper catalysts and solvents; conditions: control for residual catalyst/solvent
Protocol: To further confirm that the antimicrobial activities were not caused by residual copper catalysts and solvents (i.e. methanol), control experiments were carried out using these reagents against different bacterial strains.

[2] = system: Gram-negative bacteria; assay: MIC determination by disk-diffusion method, Gram-negative bacteria
Protocol: (§1) Tests for antimicrobial activities were carried out using rosin-derived quaternary ammonium 1 and their polymer 4 with a number-average molecular weight of 7.5×105 g/mol. The antimicrobial susceptibilities of several Gram-negative bacteria (e.g. Pseudomonas aeruginosa, Escherichia coli, Enterobacter aerogenes, and Klebsiella pneumonia) and Gram-positive bacteria (Staphylococcus aureus and Bacillus cereus) were determined. These strains were purified at laboratory and maintained at −70° C. in a 1:1 mixture of glycerol and dimethylsulfoxide (DMSO). To conduct the assays, a small volume of actively-growing cultures of each bacterial strain is spread on agar plates, and incubated at 28° C. for 24 h to form a ‘bacterial lawn’ covering the plate surface. Then 6 mm (dia) filter discs are added to the surface, and 30 ul samples (containing each compound at several concentrations dissolved in DMSO) are applied to the disc surfaces, and the plates are incubated.
(§2) Considering the potential applications of antimicrobial compounds and polymers as coatings for food packaging, medical implants and devices, and antifouling surfaces, all subsequent MIC determinations were carried out using the disk-diffusion method.

[3] = system: Gram-positive bacteria; assay: MIC determination by disk-diffusion method, Gram-positive bacteria
Protocol: as §1, §2

With `CO` [methanol] the “toxicity against bacterial strains” value [1] was “did not exhibit significant toxicity”.
With `CC[N+](CC)(CC)CC.[Br-]` [TEAB, tetraethylammonium bromide] the “antimicrobial activity (control experiments)” value [2] was “no activities” and the “antimicrobial activity (control experiments)” value [3] was “no activities”.
